Test results published in patent US4386076A, “(E)-5-(2-Halogenovinyl)-arabinofuranosyluracil, process for preparation thereof, and uses thereof” (Yamasa Shoyu Kabushiki Kaisha, priority 1979, dated 1983).
Converted amounts (≈) assume the structure as drawn. Where two headings read alike, the source gives them in different places.

Assays:
VZV [1] = assay: Anti-VZV activity (Pharmacological Test 3); type: cell-based, varicella-zoster virus; conditions: for MIC: Human alphaherpesvirus 3
Experimental: (§1) In accordance with the Sidwell et al. method (cf. Applied Microbiology, Vol. 22, No. 5, P. 797, 1971), the anti-virus activities of 5-bromovinyl- and 5-chlorovinyl-araU on human embryonic lung fibroblasts (HEL-F) were determined by using as controls 5-iodo-2'-deoxyuridine (IDU) and arabinofuranosyladenine (araA).
(§2) In conformance with Pharmacological Tests 1 and 2, the anti-virus activities and cell proliferations of 5-bromovinyl-araU and 5-chlorovinyl-araU were compared with those of 5-vinyl-araU and 5-bromovinyl-2'-deoxyuridine (5-bromovinyl-dUrd).

HSV-2 = assay: Anti-HSV-2 activity (Pharmacological Test 3); type: cell-based, type-2 herpes (HSV-2); conditions: for anti-HSV-2 activity compared with 5-vinyl-araU: relative to 5-vinyl-araU
Experimental: as §1, §2

HEL-F [2] = assay: Anti-HEL-F, cell proliferation (Pharmacological Test 3); type: cell-based, human; conditions: for HEL-F proliferation inhibitory effect compared with 5-bromovinyl-dUrd: Test 3, relative to 5-bromovinyl-dUrd; for cell proliferation inhibiting activity relative to 5-vinyl-araU: Test 3, relative to 5-vinyl-araU
Experimental: (§3) The effects of 5-bromovinyl araU and 5-chlorovinyl-araU on proliferation of HEL-F were compared with those of IDU and araA in accordance with the Machida et al. method (cf. Antimicrobial Agents and Chemotherapy, Vol. 16, No. 2, p. 158, 1979).
(§4) In the growth medium of HEL-F under proliferation (culture medium: Eagle's minimal essential medium supplemented with 10% fetal bovine serum) was added a test compound diluted in serial two-fold dilution and then incubated for 4 days. The numbers of increased cells with various concentrations of the compound tested were compared with those of the control groups wherein no compound was added.
as §2

[3] = as above; type: cell-based, human; conditions: human, hel-f cells
Experimental: as §3, §4, §2

VZV [4] = assay: Anti-virus activity on HEL-F, VZV (Pharmacological Test 1, Sidwell et al. method); type: cell-based, varicella-zoster virus; conditions: for MIC: Human alphaherpesvirus 3, read-out: MIC (minimal inhibitory concentration for cytopathogenic effect caused by the infection)
Experimental: as §1
(§5) *MIC = minimal inhibitory concentration for cytopathogenic effect caused
^(3) VZV = varicellazoster virus

HSV-1 = assay: Anti-HSV-1 activity (Pharmacological Test 3); type: cell-based, herpes simplex virus type 1; conditions: for anti-HSV-1 activity compared with 5-vinyl-araU: Test 3, relative to 5-vinyl-araU
Experimental: as §1, §2

HSV-1, VR-3 = assay: Anti-virus activity on HEL-F, HSV-1 VR-3 (Pharmacological Test 1, Sidwell et al. method); type: cell-based, herpes simplex virus type 1 VR3 strain
Experimental: as §1, §5
^(1) HSV1, VR3 = herpes simplex virus type 1 VR3 strain

HEL-F [5] = assay: Effect on proliferation of HEL-F (Pharmacological Test 2, Machida et al. method); type: cell-based, human; conditions: Test 2, relative to IDU and araA
Experimental: as §3, §4

[6] = as above; type: cell-based, human; conditions: human, hel-f cells
Experimental: as §3, §4

HSV, isolate-1 = assay: Anti-virus activity on HEL-F, HSV isolate-1 (Pharmacological Test 1, Sidwell et al. method); type: cell-based, herpes simplex virus clinical isolated strain 1; conditions: for MIC: read-out: MIC (minimal inhibitory concentration for cytopathogenic effect caused by the infection)
Experimental: as §1, §5
^(2) HSV, isolate1 = herpes simplex virus clinical isolated strain 1

herpes virus = assay: Anti-virus activity, overall statement; type: cell-based; conditions: for anti-virus activity compared with IDU and araA: Test 1, relative to IDU and araA; for anti-virus activity compared with 5-bromovinyl-dUrd: Test 3, relative to 5-bromovinyl-dUrd
Experimental: as §1, §2

[7] = Human alphaherpesvirus 2, Test 3, read-out: Anti-HSV-2 MIC
[8] = Human alphaherpesvirus 1, Test 3, read-out: Anti-HSV-1 MIC
[9] = Human alphaherpesvirus 1, HSV-1 VR-3, HEL-F, Test 1, read-out: MIC (minimal inhibitory concentration for cytopathogenic effect caused by the infection)
[10] = HEL-F under proliferation, incubated for 4 days, Test 2, read-out: ID50 (50% inhibition of proliferation)

| Compound | Anti-VZV VR (VZV [1]) | MIC (VZV [1]) [µg/mL] | MIC (HSV-2; [7]) [µg/mL] | Anti-HSV-2 VR (HSV-2; Test 3) | anti-HSV-2 activity compared with 5-vinyl-araU (HSV-2) | HEL-F proliferation inhibitory effect compared with 5-bromovinyl-dUrd (HEL-F [2]) | cell proliferation inhibiting activity relative to 5-vinyl-araU (HEL-F [2]) | CC50 at 96 h [3] [µg/mL] | VR (virus rating) (VZV [4]) | MIC (VZV [4]) [µg/mL] | MIC (HSV-1; [8]) [µg/mL] | Anti-HSV-1 VR (HSV-1; Test 3) | anti-HSV-1 activity compared with 5-vinyl-araU (HSV-1) | VR (virus rating) (HSV-1, VR-3; HSV-1 VR-3, HEL-F, Test 1) | MIC (HSV-1, VR-3; [9]) [µg/mL] | inhibition of cell proliferation compared with IDU and araA (HEL-F [5]) | CC50 at 96 h [6, 10] [µg/mL] | VR (virus rating) (HSV, isolate-1; HSV isolate-1, HEL-F, Test 1) | MIC (HSV, isolate-1; HSV isolate-1, HEL-F, Test 1) [µg/mL] | anti-virus activity compared with IDU and araA (herpes virus) | also measured |
| --- | --- | --- | --- | --- | --- | --- | --- | --- | --- | --- | --- | --- | --- | --- | --- | --- | --- | --- | --- | --- | --- |
| O=c1[nH]c(=O)n([C@@H]2O[C@H](CO)[C@@H](O)[C@@H]2O)cc1/C=C/Br [5-bromovinyl-araU, (E)-5-(2-bromovinyl)-1-β-D-arabinofuranosyluracil] | 3.5 | 0.1 (≈ 0.286 µM) | 100 (≈ 286 µM) | 0.9 | inferior to 5-vinyl-araU | less than that of 5-bromovinyl-dUrd | one half relative to 5-vinyl-araU | > 1000 | 3.5 | 0.1 (≈ 0.286 µM) | 0.032 (≈ 0.0917 µM) | 3.7 | significantly greater anti-HSV-1 activity | 3.8 | 0.032 (≈ 0.0917 µM) | markedly weak inhibition of cell proliferation | > 1000 | 3.8 | 0.032 (≈ 0.0917 µM) | stronger anti-virus activities | anti-HSV-2 activity compared with anti-HSV-1 activity (HSV-2; HSV-2 versus HSV-1): lower than that on type-1 herpes (HSV-1); anti-virus activity compared with 5-bromovinyl-dUrd (herpes virus): potencies similar to that of 5-bromovinyl-dUrd |
| O=c1[nH]c(=O)n([C@H]2C[C@H](O)[C@@H](CO)O2)cc1/C=C/Br [5-bromovinyl-dUrd, 5-bromovinyl-2'-deoxyuridine, reference compound] | – | – | – | 0.7 | inferior to 5-vinyl-araU | – | – | – | – | – | – | 3.7 | – | – | – | – | – | – | – | – | MIC (HSV-2; Human alphaherpesvirus 2, read-out: Anti-HSV-2 MIC): 100 µg/mL (≈ 300 µM); MIC (HSV-1; Human alphaherpesvirus 1, read-out: Anti-HSV-1 MIC): 0.032 µg/mL (≈ 0.0961 µM) |
| O=c1[nH]c(=O)n([C@@H]2O[C@H](CO)[C@@H](O)[C@@H]2O)cc1/C=C/Cl [5-chlorovinyl-araU, (E)-5-(2-chlorovinyl)-1-β-D-arabinofuranosyluracil] | 3.4 | 0.1 (≈ 0.328 µM) | > 1000 | 0.2 | – | less than that of 5-bromovinyl-dUrd | one half relative to 5-vinyl-araU | 1000 (≈ 3280 µM) | 3.4 | 0.1 (≈ 0.328 µM) | 0.1 (≈ 0.328 µM) | 3.5 | significantly greater anti-HSV-1 activity | 3.3 | 0.1 (≈ 0.328 µM) | markedly weak inhibition of cell proliferation | > 500 | 3.1 | 0.1 (≈ 0.328 µM) | stronger anti-virus activities | anti-virus activity compared with 5-bromovinyl-dUrd (herpes virus): potencies similar to that of 5-bromovinyl-dUrd |
| C=Cc1cn([C@@H]2O[C@H](CO)[C@@H](O)[C@@H]2O)c(=O)[nH]c1=O [5-vinyl-araU, 5-vinylarabinofuranosyluracil, reference compound] | 2.9 | 0.32 (≈ 1.18 µM) | 1 (≈ 3.7 µM) | 2.7 | – | – | – | 650 (≈ 2410 µM) | – | – | 0.1 (≈ 0.37 µM) | 3.3 | – | – | – | – | – | – | – | – | – |
| O=c1[nH]c(=O)n([C@H]2C[C@H](O)[C@@H](CO)O2)cc1I [IDU, 5-iodo-2'-deoxyuridine, reference compound] | – | – | – | – | – | – | – | – | 2.3 | 3.2 (≈ 9.04 µM) | – | – | – | 2.4 | 3.2 (≈ 9.04 µM) | – | 6 (≈ 16.9 µM) | 2.1 | 3.2 (≈ 9.04 µM) | – | – |
| Nc1ncnc2c1ncn2[C@@H]1O[C@H](CO)[C@@H](O)[C@@H]1O [araA, arabinofuranosyladenine, reference compound] | – | – | – | – | – | – | – | – | – | – | – | – | – | 1.9 | – | – | – | 1.9 | – | – | MIC (HSV-1, VR-3; Human alphaherpesvirus 1, read-out: MIC (minimal inhibitory concentration for cytopathogenic effect caused by the infection)): 10 µg/mL (≈ 37.4 µM); CC50 at 96 h [6]: 4 µg/mL (≈ 15 µM); MIC (HSV, isolate-1): 10 µg/mL (≈ 37.4 µM) |
